Patent US8519007B2, “Use certain diterpene compounds in the treatment of androgen receptor-associated diseases” (Academia Sinica, priority 2008, dated 2013)

What was measured:
LNCaP cells = assay: MTT cell viability; format: cell-based, human; settings: concentrations above 10 μM, 48 h
Experimental: (§1) The effects of HDHS on cell viability in various PCa cell lines including androgen-dependent LNCaP, androgen-responsive 22Rv1 cells, and androgen-independent PC-3 cells were tested and compared with untransformed fibroblast NIH-3T3 cells. PCa or NIH-3T3 cells (1×10^4 cells) were seeded into 96-well microtiter plates with 10% FBS culture medium. After 24 h, cells were incubated in 10% FBS medium containing different concentrations of HDHS or equivalent amounts of vehicle alone as control for 48 h. Cell viability was then determined by MTT assay, which quantitatively measures the metabolic activity of living cells.

PC-3 cells = assay: MTT cell viability; format: cell-based, human; settings: PC-3, concentrations above 10 μM, 48 h, versus LNCaP and 22Rv1
Experimental: as §1

AR-LBD = biological target: T1, AR-LBD (Homo sapiens, UniProt P10275); assay: One-hybrid assay (GBD-AR-LBD) in 22Rv1 cells; format: cell-based; settings: 10 nM DHT, 20 h
T1 construct: expressed in transfected cells; host or cells: 22Rv1
T1 sequence (P10275 669-900 limits assumed): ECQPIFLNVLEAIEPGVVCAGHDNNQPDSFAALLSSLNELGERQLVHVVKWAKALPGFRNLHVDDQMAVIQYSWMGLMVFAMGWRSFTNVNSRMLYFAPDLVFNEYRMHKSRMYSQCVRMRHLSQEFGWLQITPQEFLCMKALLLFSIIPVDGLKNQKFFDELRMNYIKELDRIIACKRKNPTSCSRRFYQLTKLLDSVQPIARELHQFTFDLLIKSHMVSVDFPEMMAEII
Experimental: The molecular mechanism whereby HDHS represses AR activity was analyzed by the following experiments. […] The transfected cells were treated with vehicle or various compounds for another 20 h.

22Rv1 cells = assay: Morphology of treated cells; settings: 22Rv1, 10 to 50 μM, 48 h
Description: The long-term effect of HDHS on the malignant growth of AR-dependent (22Rv1, and LNCaP) and AR-independent (PC-3) PCa cells was examined by colony-forming growth assay.

CC(C)c1cc2c(cc1O)[C@@]1(C)CCCC(C)(C)C1=C(O)C2=O [Compound 2, 6,12-dihydroxyabieta-5,8,11,13-tetraen-7-one]
cell viability (MTT) (LNCaP cells): strongly reduced cell viability
cell viability (MTT) (PC-3 cells): far less pronounced
effect on DHT-induction of AR-LBD (one-hybrid luciferase) (AR-LBD): inhibited the AR-LBD dose-dependently
morphology of treated cells (22Rv1 cells): cell rounding and surface blebbing
